Like-named read-outs stand apart in the source and are kept apart here.
Tests used:
[1] = type: physicochemical; details: for content in aqueous injection solution: 37° C.
Text: (§1) Compared to Compound II, Compound I has better stability in aqueous solution (see Table 2) and in the solid state (See Table 3). Thus Compound I can be stored without freezing or special treatment.

[2] = pH of aqueous solution; type: physicochemical
[3] = Solid state stability, 72 hours in storage at various temperatures; type: physicochemical
Text: as §1

[4] = Muscle stimulation test on rabbits; type: in vivo, New Zealand rabbits
Text: The inventors have conducted the muscle stimulation test of Compounds Ia and II on rabbits. The test is as follows. Eight New Zealand rabbits were divided into three groups. Two groups, containing three rabbits per group, were administrated with Compound Ia and Compound II, respectively. The third group, containing two rabbits, was used as a negative control group. The rabbits were intramuscularly injected with high concentrations of the compounds into the left quadriceps and with low concentration into the right quadriceps. The negative control group was injected with an equal concentration of sodium chloride into the quadriceps of both sides. Each quadriceps was administrated with 1.0 mL once a day for three consecutive days. One or two rabbits from each group were anatomized after 48 hours of the injection. The remaining rabbits were anatomized after the end of the two-week recovery period.

[5] = tested on: Pneumonia Chain Coccus; assay: In-vivo antibacterial activity (protection of rats); details: against Pneumonia Chain Coccus
[6] = tested on: Excrement Enterococcus; assay: as above; details: against Excrement Enterococcus
[7] = Acute toxicity tests on rats; type: in vivo; details: intravenous injection
[8] = type: in vivo
Procedure: The inventors conducted preliminary pharmacokinetic study of Compound Ia on Beagle dogs. The Beagle dogs were allowed to drink water freely but not to eat food for 16 hours before and 4 hours after the intravenous injection of 50 mg/kg.bw of the compound. Intravenous blood sampling took place at 0, 0.083, 0.17, 0.25, 0.5, 1, 1.5, 2, 3, 4, 6, 9, 12 hours, respectively, after the injection, each blood sample being 3 mL. Thereafter the dogs were given the drugs every other week and blood samples were taken according to the above manner. The blood samples were added to the centrifuge tubes containing heparin and thoroughly mixed by centrifuging at 4000 rpm for 10 minutes. The blood plasma was separated and an abstraction agent (methanol/ethyl acetate 3:2 V/V) was added to and mixed with it by centrifuging at 10000 rpm for 10 minutes. The top, clear liquid, 20 μL, was taken and analyzed by HPLC.

[9] = tested on: Moraxella Catarrhalis; assay: In-vivo antibacterial activity (protection of rats); details: against Moraxella Catarrhalis
[10] = Solubility
[11] = tested on: Shigella; assay: Vitro bacteriostasis, two-fold agar dilution method; type: cell-based
Procedure: (§2) Vitro bacteriostasis experiments of Compounds Ia, Ib, and Ic were performed using the two-fold agar dilution method.

[12] = tested on: Pneumonia Chain Coccus; assay: as above; type: cell-based
Procedure: as §2

[13] = tested on: Moraxella Catarrhalis; assay: as above; type: cell-based
Procedure: as §2

[14] = tested on: Excrement Enterococcus; assay: as above; type: cell-based
Procedure: as §2

[15] = tested on: Type B Chain Coccus; assay: as above; type: cell-based
Procedure: as §2

[16] = tested on: Type A Chain Coccus; assay: as above; type: cell-based
Procedure: as §2

[17] = tested on: Haemophilus Influenzae; assay: as above; type: cell-based
Procedure: as §2

[18] = healthy Beagle dogs, single intravenous injection 50 mg/kg.bw

SMILES | content in aqueous injection solution ([1]; 0 hr) [%] | content in aqueous injection solution ([1]; 0.2 hr) [%] | content in aqueous injection solution ([1]; 1 hr) [%] | content in aqueous injection solution ([1]; 2 hr) [%] | content in aqueous injection solution ([1]; 3 hr) [%] | content in aqueous injection solution ([1]; 4 hr) [%] | pH ([2]; concentration not given) | content after 72 hours in storage ([3]; 10° C.) [%] | content after 72 hours in storage ([3]; 40° C.) [%] | content after 72 hours in storage ([3]; 60° C.) [%] | content after 72 hours in storage ([3]; −5° C.) [%] | LD50 [7] [mg/kg] | pH ([2]; concentration 0.1 g/mL) | MIC90 [11] [µg/mL] | MIC90 [12] [µg/mL] | MIC90 [13] [µg/mL] | MIC90 [14] [µg/mL] | MIC90 [15] [µg/mL] | MIC90 [16] [µg/mL] | MIC90 [17] [µg/mL] | further results
CC(C)N=C(NC(C)C)SCC(=O)NC1C(=O)N2C(C(=O)O)=C(CSc3nc(=O)c(=O)[nH]n3C)CSC12 (stereo not drawn) [Compound II, 7-(α-((N,N′-diisopropylamidino)thio)acetylamino)-3-(((1,2,5,6-tetrahydro-2-methyl-5,6-dioxo-1,2,4-triazin-3-yl)thio)methyl) cephalosporanic acid, reference compound] | 98.50 | 94.33 | 84.26 | 77.04 | 71.06 | 66.48 | 3.2 | 97.9 | 96.3 | 92.75 | 98.0 | – | – | – | – | – | – | – | – | – | stability (general statement) [1]: low stability; pH value of saturated aqueous solution ([2]; saturated aqueous solution): 3.2; irritation (general statement) ([4]; rabbit, in vivo): irritates muscles and blood vessels; muscle irritation observed ([4]; rabbit, in vivo): various levels of intense irritation
CC(C)N=C(NC(C)C)SCC(=O)NC1C(=O)N2C(C(=O)[O-])=C(CSc3nc(=O)c(=O)[nH]n3C)CSC12.[Na+] (stereo not drawn) [Compound Ia, 7-(α-((N,N′-diisopropylamidino)thio)acetylamino)-3-(((1,2,5,6-tetrahydro-2-methyl-5,6-dioxo-1,2,4-triazin-3-yl)thio)methyl) cephalosporanic acid mono sodium salt] | 98.60 | 98.60 | 97.98 | 97.79 | 97.24 | 97.13 | 7.3 | 96.9 | 96.6 | 96.4 | 97.0 | 1747.6 | 7.3 | 4 | 0.125 | 1 | 8 | 0.0625 | 0.5 | 0.5 | protection for rats [5]: excellent protection; protection for rats [6]: excellent protection; AUC [8, 18]: 108.29 ± 18.17 µg·h/mL; ClB [8, 18]: 7.83 ± 1.5 mL/min/kg; Cmax [8, 18]: 116.35 ± 12.06 µg/mL; V1 [8, 18]: 0.25 ± 0.07 L/kg; VB [8, 18]: 1.61 ± 0.30 L/kg; t1/2α [8, 18]: 37.8 ± 7.2 min; t1/2β [8, 18]: 155 ± 2.4 min; drug concentration after 12 hours of the administration ([8]; healthy Beagle dogs, single intravenous injection 50 mg/kg.bw, 12 hours): 0.39 ± 0.09 µg/mL; protection for rats [9]: excellent protection; solubility in acetone ([10]; acetone): not readily soluble; solubility in anhydrous ethanol ([10]; anhydrous ethanol): not readily soluble; solubility in methanol ([10]; methanol): readily soluble; solubility in water ([10]; water): readily soluble; muscle irritation observed ([4]; rabbits, intramuscular into quadriceps, 1.0 mL once a day for three days, 48 hours and 14 days after last administration): slight irritation
CC(C)N=C(NC(C)C)SCC(=O)NC1C(=O)N2C(C(=O)[O-])=C(CSc3nc(=O)c(=O)[nH]n3C)CSC12.CC(C)N=C(NC(C)C)SCC(=O)NC1C(=O)N2C(C(=O)[O-])=C(CSc3nc(=O)c(=O)[nH]n3C)CSC12.[Na+].[Na+] (stereo not drawn) [Compound Ib, disodium 7-(α-((N,N′-diisopropylamidino)thio)acetylamino)-3-(((1,2,5,6-tetrahydro-2-methyl-5,6-dioxo-1,2,4-triazin-3-yl)thio)methyl) cephalosporanate] | 98.80 | 98.54 | 97.14 | 96.66 | 95.21 | 94.30 | – | – | – | – | – | – | 10.02 | 4 | 0.5 | 0.5 | 4 | 0.0125 | 0.1 | 0.5 | –
CC(C)N=C(NC(C)C)SCC(=O)NC1C(=O)N2C(C(=O)[O-])=C(CSc3nc(=O)c(=O)[nH]n3C)CSC12.[K+] (stereo not drawn) [Compound Ic, 7-(α-((N,N′-diisopropylamidino)thio)acetylamino)-3-(((1,2,5,6-tetrahydro-2-methyl-5,6-dioxo-1,2,4-triazin-3-yl)thio)methyl) cephalosporanic acid monopotassium salt] | – | – | – | – | – | – | – | – | – | – | – | – | – | 4 | 0.5 | 0.5 | 8 | 0.0156 | 0.1 | 0.5 | –
CC(=O)OCC1=C(C(=O)O)N2C(=O)[C@@H](NC(=O)CSC(=NC(C)C)NC(C)C)[C@H]2SC1 [cefathiamidine, Cefathiamidine, reference compound] | – | – | – | – | – | – | – | – | – | – | – | 824.2 | – | – | – | – | – | – | – | – | biological half-life in blood ([8]; Beagle dogs, preliminary pharmacokinetic study): 0.65 hours; t1/2β [8, 18]: 39 ± 1.8 min
